Tests used:
[1] = tested on: alkaline phosphatase activity of mouse bone cells (OPC); test: Alkaline phosphatase activity of OPC with bioactive reagents or polymer foams; type: cell-based; settings: 4 weeks, OD at 405 nm, medium with or without polymer, FIG. 5
Method: Bioactive polymers containing covalently bound dexamethasone and β-glycerophosphate were also synthesized and studied for potential use as bone scaffolds. In several studies, mouse bone cells (OPC) (9.6×10^4/well) were cultured in a 6-well tissue culture plate without polymer foam (blank column) with Dulbecoo's modified Eagle's medium only (DMEM); with 5 mM β-glycerophosphate (β-GP); with 100 nM dexamethasone (Dex); 50 μM ascorbic acid (Vc); with 50 μM ascorbic acid and 5 mM β-glycerophosphate (Vc+β-GP); with 50 μM ascorbic acid and 100 nM dexamethasone (Vc+Dex); with 50 μM ascorbic acid, 100 nM dexamethasone and 5 mM β-glycerophosphate (Vc+Dex+β-GP) for 4 weeks.
The same cells were cultured in a 6-well plate with the LDI-PEG400-glucose polymer (red column) using DMEM only. The polymer foams were synthesized with lysine ethyl ester diisocyanate (LDI), glucose and PEG only (DMEM); with LDI, glucose, PEG and β-glycerophosphate (β-GP); with LDI, glucose, PEG and dexamethasone (Dex); with LDI, glucose, PEG and ascorbic acid (Vc); with LDI, glucose, PEG, ascorbic acid and β-glycerophosphate (Vc+β-GP); with LDI, glucose, PEG, ascorbic acid and dexamethasone (Vc+Dex); and with LDI, glucose, PEG, ascorbic acid, 3-glycerophosphate and dexamethasone (Vc+Dex+β-GP). […] The alkaline phosphatase activity was determined by the OD at 405 nm in the medium with or without polymer. […]

[2] = tested on: collagen type I in GFP-MBMC; test: Collagen type I production (Sirius Red F3B); type: cell-based, mouse; settings: after 7 days culture, P<0.005
Method: Soluble calf skin collagen type I was used for the standard curves run with each assay (see FIG. 14). […] Three individual experiments were performed for type I collagen. The results were presented as the mean±standard deviation (n=3).

[3] = tested on: type I collagen of GFP-MBMC; test: Western blot analysis for type I collagen; type: cell-based, mouse; settings: two weeks of culture
Method: After two weeks of culture, the cells were harvested with Trypsin, subjected to a centrifuge and washed once with PBS. Thereafter, the lysis buffer/CLAP solution was added to the cells (Lysis buffer: 0.187 g HEPE, 0.4235 g NaCl, 0.001 g MgCl2 and 0.19 g EGTA dissolved in 50 ml PBS. CLAP solution: 4 μl each of chymostatin, leupeptin, antipain and pepstatin A in 100 μl PBS. Lysis buffer/CLAP solution: 100 μl CLAP solution added to 6.6 ml Lysis buffer). To assure complete rupture of the cells, the tubes were stored at −20° C. for 12 hrs. Total protein concentration was quantified using the BCA protein assay kit (Fisher Scientific, USA), which measured the light absorbance at 562 nm verses a standard curve on a microplate reader.
The protein obtained as described above was re-suspended in Laemmli sample buffer, followed by protein separation on an SDS-10% polyacrylamide gel. Western blotting was performed as described previously. […]
To ensure that equal amount of total protein was loaded to the membrane, GAPDH (glycerealdehyde-3-phosphate dehydrogenase) was detected using rat-anti-mouse GAPDH antibody (ICN Biochemicals, USA) followed by peroxidase-conjugated rabbit-anti-rat IgG antibody (E.Y. Laboratories, Inc. USA). […] Molecular weights of the proteins were determined using prestained molecular weight standards (14,300-200,000 molecular weight range; GIBCO BRL). […]

SMILES | alkaline phosphatase activity of OPC [1] | concentration of collagen type I relative to LDI-glycerol-PEG scaffold or tissue culture plate [2] | type I collagen secreted (Western blotting) [3]
O=P(O)(O)OC(CO)CO [β-glycerophosphate] | more moderately | – | –
O=C1O[C@H]([C@@H](O)CO)C(O)=C1O [ascorbic acid] | significantly increased | two times higher | higher concentrations

Source: patent US20150093821A1, “BIODEGRADABLE POLYURETHANES AND USE THEREOF” (CARNEGIE MELLON UNIVERSITY, priority 2003, published 2015)
